Assay results as given in patent US20150297562A1, “ANALGESIC” (NIPPON ZOKI PHARMACEUTICAL CO., LTD., priority 2012, published 2015).

tested on: MIA-induced OA rats; experiment: Analgesic action to MIA-induced osteoarthritis model rats (von Frey test, 50% reaction threshold to mechanical stimulus); assay type: in vivo, rat (male Wistar); conditions: Rattus norvegicus, ip, single intraperitoneal dose of 200 μg/kg, von Frey test after 1 hour from administration, normal threshold value 15, read-out: Recovery rate of 50% reaction threshold value (%)
Procedure: Pharmacological Test I: Analgesic Action to Osteoarthritis Model Rats
There were conducted the following experiments for testing the analgesic action of the analgesic of the present invention using the osteoarthritis (OA) rats induced by sodium monoiodoacetate (MIA) which were model animals for OA.
(1) Preparation of MIA-Induced OA Rats
A 50% reaction threshold value to the mechanical stimulus of male Wistar rats of six weeks age was measured (the measuring method will be mentioned later) and a normal control group was selected. MIA prepared by saline was administered in a single dose of 300 μg/50 μL into right knee joint of the rats except the normal control group while 50 μL of saline was administered into left knee joint whereupon the MIA-induced OA rats were prepared. To the normal control group, 50 μL of saline was administered into the joints of both knees.
With regard to the male Wistar rats of six weeks age used as experimental animals except the normal control group, their 50% reaction threshold values to the mechanical stimulus (the measuring method will be mentioned later) and body weights were measured after […] from the administration of MIA mentioned in (1) and then 3 groups each comprising six rats [a normal control group, an onset control group and a test drug-administered group] were organized.
(3) Administration of Test Drug
A test drug solution (100 μg/mL) using the compound according to the analgesic of the present invention as a test drug was prepared using a phosphate buffered saline (PBS) containing 0.1 vol % of dimethyl sulfoxide (DMSO).
Immediately after the grouping (after 14 days from the administration of MIA), a test drug solution was intraperitoneally administered in a single dose of 200 μg/kg to a test drug-administered group. Meanwhile, to the normal control group and the onset control group, PBS containing 0.1 vol % of DMSO was intraperitoneally administered in a single dose.
(4) Result of Measurement of the 50% Reaction Threshold Values to the Mechanical Stimulus (Von Frey Test)
The three groups of rats of the above (2) were placed in a transparent acrylic cage with a wire-meshed floor and habituated for about three minutes and the 50% reaction threshold values to the mechanical stimulus were measured after 1 hour from the administration of a test drug. The measurement was conducted using von Frey filaments (manufactured by North Coast Medical Inc.) in accordance with the methods of Chaplan, et al. (Journal of Neuroscience Methods, vol. 53, no. 1, pages 55 to 63, 1994) and Dixon, et al. (Annual Review of Pharmacology and Toxicology, vol. 20, pages 441 to 462, 1980). […] The case where the rat escaped at the instance of removing the filament was also called positive. When the positive reaction was noted, stimulus was conducted similarly using a filament of one rank weaker while, when no reaction was noted, stimulus was conducted similarly using a filament of one rank stronger and the point when the reaction changed from negative to positive or from positive to negative was called the first two reactions. After that, stimulus was conducted for continuous four times by the same up-down method. A 50% reaction threshold value to the mechanical stimulus was measured using the reaction to the six stimuli in total and then (mean value)±(standard error) for each group was calculated. Incidentally, when stimulus reached by that of 15.0 g without positive reaction or, when positive reaction continued to 0.4 g, then 15.0 g or 0.25 g was adopted as each threshold value, respectively.
With regard to the 50% reaction threshold value after 1 hour from administration of a test drug, a recovery rate (%) of the 50% reaction threshold value was calculated by the following expression in which 15 was adopted as the normal threshold value. […]

Row | SMILES | inhibition in vivo at 0.2 mg/kg [%]
1 | CCCCCCC/C=C/C(=O)N(CC)CCN(CC)CC [Compound 44 (Citrate), (E)-N-(2-(diethylamino)ethyl)-N-ethyl dec-2-enamide] | 21.7
2 | CCCCCCC/C=C/C(=O)NCC(C)C [Compound 18, (E)-N-isobutyl dec-2-enamide] | 49
3 | CCCCCCC/C=C/C(=O)SCCN(CC)CC [Compound 56, (E)-S-2-(diethylamino)ethyl dec-2-enethioate] | 21.8
4 | CCCCCCC/C=C/C(=O)NC1CCCCC1 [Compound 27, (E)-N-cyclohexyl dec-2-enamide] | 5.8
5 | CCCCCCC/C=C/C(=O)NCCCCCC [Compound 22, (E)-N-hexyl dec-2-enamide] | 44.3
6 | CCCCCCC/C=C/C(=O)SCCCCCC [Compound 50, (E)-S-hexyl dec-2-enethioate] | 15.6
7 | CCCCCCC/C=C/C(=O)NCCN(CC)CC [Compound 37 (Citrate), (E)-N-2-(diethylamino)ethyl dec-2-enamide] | 45.1
8 | CCCCCCC/C=C/C(=O)OCCOC [Compound 9, (E)-2-methoxyethyl dec-2-enoate] | 13
9 | CCCCCCC/C=C/C(=O)OCCSC(C)C [Compound 8, (E)-2-(isopropylthio)ethyl dec-2-enoate] | 28.9
10 | CCCCCCC/C=C/C(=O)N(CCN(C)C)CCN(C)C [Compound 45, (E)-N,N-bis(2-(dimethylamino)ethyl) dec-2-enamide] | 10.2
11 | CCCCCCC/C=C/C(=O)OCCN(C)C [Compound 1, (E)-2-(dimethylamino)ethyl dec-2-enoate] | 25.5
